This note sets out measurements from a melting point compilation (Tetko et al.; mined from patent text by program, amines drawn as free bases though some values may be those of a salt).

Non-standard residues stand in square brackets, D forms with d. Residues, ends and D or L forms follow the SMILES beside them. ξ: configuration not given here. *: point of attachment. ξPhe(4-F) = NC(Cc1ccc(F)cc1)C(=O)O; Boc = CC(C)(C)OC(=O)* Where only a bound is given, the exact number is not on record here.

`Cc1cccc(-c2cc(Cl)c3ccccc3n2)c1` came in with a melting point of 75 to 77 °C.
With `CC(C)Oc1cccc(NC(=O)NCc2c(-c3ccccc3)c3cc(Cl)ccc3n2C)c1` the figure was 218 to 220 °C; with `O=C(NC(CCO)c1ccccc1Br)c1c(F)cccc1F` (stereo not given), 63 to 65 °C.
As to `CCOP(=O)(CNCc1ccnc(-c2cc(C(C)(C)C)c(O)c(C(C)(C)C)c2)c1)OCC`, the melting point lay within 66 to 69 °C.
Compound `Cc1c(-c2cccnc2)sc2nc(N)[nH]c(=O)c12` gave a melting point of 280 to 290 °C.
With `COC(=O)c1nc2n(n1)-c1ccccc1N(c1cccc(C)c1C)C2` the figure was 170 to 172 °C.
Under `FC(F)(F)c1ccc(-c2cc(Oc3ccc4cccnc4c3)ncn2)c(NCC2CCCCC2)n1` stands 151 to 152 °C.
Under `C=CCn1c(NC)nn(C(=O)Nc2ccccc2)c1=S` stands 132 to 133 °C.
With `CON=C(C(N)=O)c1cnccn1`, the melting point was in the range of 188 to 190 °C.
`O=C1Nc2ccc(Br)cc2C1c1ncnc2c1cnn2C1CCCCC1` (stereo not given) gave a melting point of 305 to 308 °C.
Under `O=C(NC(Cc1cccc(Cl)c1)C(=O)N1CCSC1)c1cc2cc(Cl)ccc2[nH]1` (stereo not given) stands 188 to 190 °C; under `c1cnc2cc(C34CCCN3CCC4)oc2c1`, 39 to 41 °C.
Under `Oc1ccc(Oc2ccc3ccccc3n2)cc1` stands 177 °C; under `CCNC(=O)Nc1nc2cc(-c3cccnc3)cc(N3CCOCC3)n2n1`, 298 to 300 °C; under `COc1ccc2c(c1)C(=O)N(c1cnc3c(ccn3C)c1)C2`, 198 to 199 °C.
Take `CCCCC[C@H]1CC[C@H](c2cnc(C#N)nc2)CC1`: the melting point turned out to be 83.5 °C.
Under `Cn1nc(OC2=CC(CF)(CF)Oc3ccc(C(F)(F)C(F)(F)F)cc32)ccc1=O` stands 150 to 152 °C.
With `COc1c(OCc2ccccc2)cnc(CO)c1C` the figure was 70 to 73 °C; with `CC(C)(C)N1CC(COc2cccc3c(S)nccc23)OC1=O` (stereo not given), 264 to 269 °C; with `Cc1cccc(Nc2nc(N)ncc2S(=O)(=O)NC(C)(C)C)c1`, 174 to 178 °C.
Regarding `CCCCCCCCNCC(O)C(O)C(O)C(O)CO` (stereo not given), the melting point was in the range of 114 to 116 °C.
In turn, `CC(C)c1cc2c(c3c1C(=O)N(CCl)S3(=O)=O)OCO2` gave a melting point of 174 to 176 °C.
With `CCOC(=O)c1ncc2[nH]c3ccc(CC)cc3c2c1C`, the melting point was 158 to 163 °C.
In the case of `COC(=O)c1ccc(C(F)(F)F)nc1S(=O)(=O)NC(=O)Nc1nc(OC)cc(OC)n1`, the melting point is 130 to 137 °C.
The compound `Cc1cc2nn(C)c(=O)n2nc1-c1cccc(N)c1` showed a melting point of 192 to 195 °C.
`Cc1cc(C2CCN(S(=O)(=O)C(C)(C)C(=O)NO)CC2)ccc1-c1cccc(OC[C@@H](O)CO)c1` showed a melting point of 152 to 154 °C.
Under `CC(C)c1ccc(N(Cc2ccc(N(C)C)cc2)C(=O)C2CCCc3cc(OCc4ccccc4)ccc32)cc1` (stereo not given) stands 107 to 109 °C; under `COc1ccc(-c2nc3cc4c(cc3[nH]2)C(C)(C)CC(=O)N4)cc1`, 235 to 238 °C; under `Nc1ccc2c(c1)COc1cc(Nc3ccc(C(F)(F)F)cc3N)ccc1C2=O`, 93.9 °C.
With `Clc1cc(Cl)c(Oc2c(Cl)ncnc2Cl)c(Cl)c1`, the melting point was in the range of 104 to 105 °C.
`CC(C)(Oc1ccc(Oc2ccc(OC(C)(C)C(=O)O)cc2)cc1)C(=O)O` registered a melting point of 125 °C.
With `S=C1CC(c2ccccc2)=Nc2ccccc2N1` the figure was 228 to 230 °C.
With `CCc1csc(NC(=O)Nc2ccc(N3CCN(C(=O)Nc4ccc(OCCO)cc4C(F)(F)F)CC3)cc2)n1` the figure was 124 to 125 °C.
The compound `NC(=O)N(O)CC1CCCCC1` yielded a melting point of 143 to 144 °C.
With `CC(=O)NCC1OCC(Cc2ccc(Cl)cc2)CO1` (stereo not given) the figure was 95 °C; with `C=CCn1c(C)nc2c3c(c(C(=O)OC)cc21)C(=O)CC1(Cc2ccccc2C1)N3`, 216 to 217 °C; with `CCOC(=O)C(C)(C)NC(=O)c1ccc(S(=O)(=O)n2c(=O)n(C3CCCCC3)c3cc(OCC)ccc32)c(OC)c1`, 202 °C.
With `Cc1ccc(OC2SCC(O)C(O)C2O)c(-c2ccncc2)n1` (stereo not given) the figure was 196 to 200 °C; with `COC(=O)c1ccc2c(c1)ncn2-c1ccc(OC)c(C2CCCC2)c1`, 129 to 131 °C; with `CCNC(=O)C(Cc1ccc(F)cc1)NC(=O)CNC(=O)OC(C)(C)C` (stereo not drawn) (Boc-Gly-[ξPhe(4-F)]-NHEt), 181 to 182 °C.
With `Cc1ccc(C(=O)C2=C(O)C(=O)N(c3ccc(C)nn3)C2c2ccc(N3CCN(CCN(C)C)CC3)cc2)cc1` (stereo not given) the figure was 185 °C; with `CCCCCCOc1cc(C(=O)O)cc(N)c1C(=O)c1ccccc1`, 168 °C.
Compound `COc1cc(N)c(C(=O)c2ccnc(Cl)c2)cc1OC` returned a melting point of 132 to 134 °C.
`CCCc1cc(O)nc(SCc2ccccc2)n1` yielded a melting point of 122 to 126 °C.
Under `CCCc1ccc(C(=O)O)c2ccccc12` stands 134 to 135 °C.
Under `CC(CCN(C)c1ccc(Cl)cc1)NCC(O)c1ccc(O)c(C(N)=O)c1` (stereo not given) stands 127 to 129 °C.
As for `CCOC(=O)c1ncc2[nH]c3ccc(N4CCCS4(=O)=O)cc3c2c1C`, the melting point was determined as 230 °C.
Under `CCOC(=N)N1Cc2ccccc2-c2ccccc2C1` stands 68 to 71 °C; under `Cc1cccc(S(=O)(=O)NC(=O)NCCCCCCNC(=O)NS(=O)(=O)c2cccc(Cl)c2)c1`, 187 to 189 °C.
Under `CCCCN1C(=O)c2cnc(-c3ccccc3)nc2Nc2ccccc21` stands 140 to 141 °C.
`COc1ccc(Cl)cc1-c1nccn1-c1ccccc1` displayed a melting point of 97 to 102 °C.
With `CCC1CCCCCc2c1oc(=O)c(C(c1ccccc1)C1CC1)c2O` (stereo not given) the figure was 94 to 98 °C.
In turn, `Cc1oc2c(C)c(C)c(NC(=O)c3ccc(F)cc3)c(C)c2c1-c1ccccc1` gave a melting point of 242 to 245 °C.
Under `COC(=O)C1C=CCN2C(=O)C(CCSC(C)=O)(Cc3ccccc3)C(=O)N12` (stereo not given) stands 161 to 162 °C; under `CCN(CC)CCOc1cccc2c1c1ccccc1n2Cc1ccccc1`, 79 to 80.5 °C; under `Cc1oc(-c2ccccc2)nc1COc1ccc(OCc2oc(-c3ccccc3)nc2C=O)cc1`, 127 to 128 °C.
With `COC(=O)c1scc(Cl)c1NC(C)=O`, the melting point lay in the range of 142 to 147 °C.
For `Cc1nc2n(c1CC#N)CCCC2OCc1ccccc1` (stereo not given), the melting point lay within 132 to 134 °C.
Under `O=C(Nc1ccc2c(c1)OC(F)(F)O2)NC12CC3CC(CC(C3)C1)C2` stands 213 to 215 °C; under `O=[N+]([O-])c1cnc(Sc2nccnc2Cl)s1`, 139 to 141 °C.
For the compound `CCOC(=O)c1cc(-c2ccc(OC)cc2)nn(C(C)C)c1=O`, the melting point came out at 141 °C.
Under `Nc1nc(-c2ccccc2)c(-c2ccnc(Nc3cccc(CO)c3)n2)s1` stands 214 to 215 °C; under `CSc1ncc2cc(Oc3c(F)cccc3F)c(=O)n(C)c2n1`, 247 to 251 °C.
With `O=C(O)c1cnc2c3ccccc3ncn2c1=O`, the melting point was > 270 °C.
Under `C[C@@](O)(C(=O)Nc1ccc(S(=O)(=O)c2ccccc2NCCO)cc1Cl)C(F)(F)F` stands 68 to 70 °C; under `CSCc1nnc(-c2ccc3occ(-c4cccc(OC(F)(F)F)c4)c3c2)o1`, 84 to 85 °C; under `COC(=O)CCNC(=O)c1ccc2c(c1)nc(-c1ccc(C(=N)N)cc1)n2CCC(c1ccccc1)c1ccccc1`, > 200 °C.
Compound `O=C(c1ccccc1)N1CCN2c3ccccc3Cn3cccc3C2C1` (stereo not given) displayed a melting point of 137 to 139 °C.
Under `CC1CCC2(C(=O)O)CCC3(C)C(=CCC4C5(C)CC(O)C(O)C(C)(C)C5CCC43C)C2C1C` (stereo not given) stands 242 to 244 °C.
`Clc1ccc(C=Cc2nc[nH]n2)cc1` returned a melting point of 178 to 182 °C.
Under `O=C(N[C@H]1CCOC1=O)OCc1ccccc1` stands 129 to 130 °C.
On to `CCOC(=O)CCCCOc1ccc2c(c1)CC1CC(=O)NC1=N2` (stereo not given), for which the melting point amounted to 180 °C.
Under `O[C@@H]1CCCC[C@H]1Nc1nc(Cl)ncc1Cl` (relative stereo) stands 139 to 142 °C.
`O=C(CCS)NCCS` had a melting point of 40 °C.
Compound `CNc1ccc(C(=O)OC)c(S(=O)(=O)NC(C)(C)C)c1` showed a melting point of 120 to 124 °C.
Under `CCOC(=O)c1c(O)c2ccc(C)nc2n(CC)c1=O` stands 138 to 140 °C; under `Cc1ccc(-c2ccc3c(c2)C=C(C(=O)Nc2ccc(CCN4CCCCC4)cc2)CCO3)cc1`, 201 to 202 °C; under `Clc1ccc(-c2cnn3cnnc3n2)cc1`, > 300 °C.
With `CC1=C(c2ccnc3ccccc23)SCC(=O)N1` the figure was 174 to 176 °C; with `Cn1cc(C(F)(F)F)ccc1=O`, 125 to 129 °C.
For `CC(=O)c1sc2c(Br)cccc2c1C`, the melting point is 105 to 107 °C.
Compound `Oc1ccc(-c2nnc(CSCCCOc3ccccc3)o2)cc1` displayed a melting point of 122 to 127 °C.
As to `c1ccc(Cc2cc3ccncc3[nH]2)cc1`, the melting point was in the range of 142 to 146 °C.
Under `CN1C(=O)[C@H](NC(=O)CCc2ccccc2)N=C(c2ccccc2)c2ccccc21` stands 179 °C.
On to `CC(=O)c1nc(-c2ccncc2C)[nH]c1C`, for which the melting point was 185 to 187 °C.
In the case of `CCCCOc1c(CNC(=O)OC(C)(C)C)n(CC(C)C)c(=O)c2ccc(-c3noc(=O)[nH]3)cc12`, the melting point fell in the range of 223 to 224 °C.
As for `Cc1ccc(-c2ccccc2C(=O)O)cc1C(=O)NCC1CCCCCC1`, the melting point was 188 to 189 °C.
With `CCCC1=C(C#N)C(c2ccccc2[N+](=O)[O-])c2c[nH]nc2N1` (stereo not given) the figure was 216 °C.
Under `CC(C)(C)c1ccc(Oc2ncnc3cc(-c4ncccc4C(F)(F)F)ccc23)cc1` stands 162 to 163 °C; under `N#Cc1cn(-c2c(Cl)cccc2Cl)c(=O)[nH]c1=O`, 273 to 274 °C.
